The values below come from patent US20020085997A1, “TUMOUR VACCINE AND PROCESS FOR THE PREPARATION THEREOF” (priority 1995, published 2002).

For one test, the system named is CT-26 cells. Briefly: Protection of Balb/c mice by pre-immunisation with vaccine of foreign peptide-charged CT-26 colon carcinoma cells (prophylactic mouse model). In kind it is in vivo. Particulars: for animals protected: vaccinated twice s.c. 10^5 cells/mouse.
Another test deals with M-3 cells. The experiment in a line: Comparative FACS analysis of M-3 cells treated with FITC-labelled foreign peptide by various methods. Format: cell-based, murine.
Another test has as its system M-3 melanoma metastases. Briefly: Curing of DBA/2 mice having M-3 melanoma metastases with vaccine of foreign peptide-charged melanoma cells (therapeutic mouse model). In kind it is in vivo.
Test [1] deals with highly tumorigenic variant of the M-3 cells. Format: in vivo, mice. As to conditions: cells charged with peptide by means of TfpL/DNA complexes.

With “FFIGALEEI [Phe Phe Ile Gly Ala Leu Glu Glu Ile, synthetic peptide not hitherto found in nature, designed as ligand for MHC-I molecule of type H2-Kd]”, the “suitability of the peptide for producing an anti-tumour immunity” value in the test on CT-26 cells (murine colon carcinoma CT-26, Balb/c) is “confirmed”. In the test with CT-26 cells, the animals protected was 4 out of 8.
On to “LFEAIEGFI [Leu Phe Glu Ala Ile Glu Gly Phe Ile, viral peptide derived from the influenza virus haemagglutinin, H2-K^d-ligand, used as foreign peptide to charge tumour cells]”, for which, in the test on M-3 cells (adjuvant mixing: 100 μg FITC-labelled peptide, 30 minutes ambient temperature, 10^6 M-3 cells), the “peptide binding to cells after washing step” value was “at most negligible”. Also, the “detection of cell-bound FITC peptide by fluorescent microscopy” value in the test with M-3 cells (pulsing, cytocentrifuged M-3 cells) is recorded as “practically undetectable”. The shift in fluorescence entry with M-3 cells (pulsing: incubation with 450 μg FITC peptide, 3 hours 37° C., M-3 cells) is listed as “one power of ten”. Besides, the “shift in fluorescence compared with untreated cells or cells treated with polylysine alone” value in the test with M-3 cells (transloading: 160 μg FITC-labelled peptide with TfpL/pL/DNA complex, 3 hours 37° C., M-3 cells) was ~2 powers of ten. For the same sequence, in the test on CT-26 cells (irradiated CT-26 vaccine alienised with peptide complexed with TfpL or pL), the “vaccinated mice able to eliminate a tumour challenge” value was 75%. Besides, in the test with CT-26 cells, the animals protected was 6 out of 8. Also, the animals cured is 7 out of 8 in the test on M-3 melanoma metastases (160 μg peptide charged onto M-3 cells by TfpL/DNA complexes, 5 day metastasis, 10^5 irradiated cells/animal s.c. twice); 2 out of 8 in the test on M-3 melanoma metastases (complexes containing 0.5 μg of peptide, five-day metastasis); 1 out of 8 in the test with M-3 melanoma metastases (vaccine of cells treated with 4 mg peptide by incubation (pulsing, 3 hours 37° C.)). Further, the “degree of systemic immune response of the tumour vaccine” value with M-3 melanoma metastases (adjuvant mixing of the peptide with the irradiated vaccines) is “inefficient”; in the test with M-3 melanoma metastases (peptide administered to the cells by polylysine/transferrin, compared with incubation with peptide for 24 hours (pulsing)) it was “significantly more marked”. Besides, the mice cured in the test with M-3 melanoma metastases (complexes containing 5 μg of peptide, five-day metastasis) is given as 4 out of 8; in the test on M-3 melanoma metastases (complexes containing 50 μg of peptide, five-day metastasis), 6 out of 8. Also, the “mice able to eliminate the metastases” value with M-3 melanoma metastases (mice with metastases vaccinated with xenopeptised irradiated M-3 cells (TfpL and empty vector)) is 87.5%. In addition, in the test with M-3 melanoma metastases (vaccine with 400 μg peptide applied by incubation (pulsing, 3 hours 37° C.)), the “animals remained free from tumours” value is recorded as 3 out of the 8.
For the sequence “LPEAIEGFG [Leu Pro Glu Ala Ile Glu Gly Phe Gly, control peptide, anchor amino acids at positions 2 and 9 replaced by proline and glycine, reference compound]”, the animals developed tumours in test [1] is listed as 7 out of 8.
